In brackets after ≈: the same amount, converted by molar mass. Like-named read-outs stand apart in the source and are kept apart here.
What was measured:
Botrtyis cinerea (Bc) = experiment: In vitro pathogen growth inhibition assay, Bc; type: cell-based; conditions: 48 h
Procedure, shortened: (§1)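 Value reported is the compound concentration reaching ≥90% growth inhibition, from OD readings at 24 and 48 h after blank subtraction, confirmed visually. Inoculum was spores diluted in 17% V8 medium, except Rs, using 1.5 mm mycelial plugs in ¼ PDB; actual compound concentration corrected via OD600.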

[1] = tested on: Collectotrichum graminicola (Cg); experiment: In vitro pathogen growth inhibition assay, Cg; type: cell-based; conditions: 48 h
Procedure, shortened: as §1

Diplodia maydis (Dm) = experiment: In vitro pathogen growth inhibition assay, Dm; type: cell-based; conditions: Stenocarpella maydis, 48 h
Procedure, shortened: (§2)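 Spores of Dm, Fv and Pc were diluted in 17% V8 liquid medium; Rs used 1.5 mm mycelial plugs in ¼ PDB. Compounds from 2.5 mg/ml DMSO stocks were combined with inoculum, growth was read by OD600 at 24 and 48 h with blank subtraction, and the reported value is the concentration giving ≥90% inhibition.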

[2] = tested on: Fusarium moniliforme (Fm); experiment: In vitro pathogen growth inhibition assay, Fm; type: cell-based; conditions: Fusarium verticillioides
Procedure, shortened: as §1

[3] = tested on: Fusarium virguliforme (Fv); experiment: In vitro pathogen growth inhibition assay, Fv; type: cell-based
Procedure, shortened: as §2

[4] = tested on: Phytophthora capsici (Pc); experiment: In vitro pathogen growth inhibition assay, Pc; type: cell-based; conditions: 48 h
Procedure, shortened: as §2

Rhizoctonia solani (Rs) = experiment: In vitro pathogen growth inhibition assay, Rs (mycelial plugs); type: cell-based; conditions: Rhizoctonia solani, 48 h, mycelial plugs
Procedure, shortened: as §2

Septoria tritici (St) = experiment: In vitro pathogen growth inhibition assay, St; type: cell-based; conditions: Zymoseptoria tritici, 48 h
Procedure, shortened: as §1

[5] = tested on: Blumeria graminis f. sp. hordei; experiment: Foliar protection test for barley powdery mildew control; type: in vivo; conditions: foliar spray on Hordeum vulgare cv. Perry, inoculated 24 hours after treatment, evaluated 7 days later
Procedure, shortened: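 Protective foliar test: compound atomized onto both leaf surfaces of 6-day-old Hordeum vulgare cv. Perry, followed after 24 h by spore-cloud inoculation from colonized untreated plants. Disease rated on leaves 7 days on, plants held at 20 to 22° C and 70% RH.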

Sphaerotheca fuliginea = experiment: Foliar protection for cucumber powdery mildew control; type: in vivo; conditions: foliar spray on Cucumis sativus cv. Straight Eight, inoculated 24 hours after treatment, evaluated 7 days later
Procedure, shortened: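 Protective foliar spray on 10-day-old Straight Eight cucumbers, with S. fuliginea spores dusted from infected stock plants 24 h after treatment. Disease developed at 23–27 °C, 60% RH and a 16 h photoperiod. Leaves were rated for mildew growth after 7 days; test rates 10 ppm or below.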

[6] = tested on: Mycosphaerella graminicola (synthetic Septoria tritici); experiment: Foliar protection test for wheat septoria leaf blotch control; type: in vivo; conditions: foliar spray on Triticum aestivum cv. WinterHawk, inoculated 1 hour after treatment, evaluated 16 days later
Fusarium graminearum = type: in vivo; conditions: spray on flowering Triticum aestivum cv. Samson, inoculated 24 hours after treatment, evaluated 14 days later
Puccinia triticina = experiment: Foliar protection test for wheat leaf rust control; type: in vivo; conditions: foliar application to wheat (Triticum aestivum cv. Winterhawk), evaluated 10 days later
Phakopsora pachyrhizi = experiment: Foliar protection test for Asian soybean rust control; type: in vivo; conditions: foliar application to soybean (Glycine max AG4832), percent disease area evaluated 14 days later
[7] = ≥90% growth inhibition, 48 hours, vs 2% DMSO control, read-out: Compound Concentration (ppm) sufficient for ≥90% inhibition of Bc
[8] = ≥90% growth inhibition, 48 hours, vs 2% DMSO control, read-out: Compound Concentration (ppm) sufficient for ≥90% inhibition of Cg
[9] = ≥90% growth inhibition, 48 hours, vs 2% DMSO control, read-out: Compound Concentration (ppm) sufficient for ≥90% inhibition of Dm
[10] = ≥90% growth inhibition, 48 hours, vs 2% DMSO control, read-out: Compound Concentration (ppm) sufficient for ≥90% inhibition of Fm
[11] = ≥90% growth inhibition, 48 hours, vs 2% DMSO control, read-out: Compound Concentration (ppm) sufficient for ≥90% inhibition of Fv
[12] = ≥90% growth inhibition, 48 hours, vs 2% DMSO control, read-out: Compound Concentration (ppm) sufficient for ≥90% inhibition of Pc
[13] = ≥90% growth inhibition, 48 hours, vs 2% DMSO control, read-out: Compound Concentration (ppm) sufficient for ≥90% inhibition of Rs
[14] = ≥90% growth inhibition, 48 hours, vs 2% DMSO control, read-out: Compound Concentration (ppm) sufficient for ≥90% inhibition of St

## CCc1ccc(F)cc1[C@H](Cn1c(=O)n(C(C)(C)C(=O)NC(C)C)c(=O)c2c(C)c(-n3nccn3)sc21)OCCO [Compound I-246, (R)-2-(1-(2-(2-ethyl-5-fluorophenyl)-2-(2-hydroxyethoxy)ethyl)-5-methyl-2,4-dioxo-6-(2H-1,2,3-triazol-2-yl)-1,4-dihydrothieno[2,3-d]pyrimidin-3 (2H)-yl)-N-isopropyl-2-methylpropanamide]
Botrtyis cinerea (Bc); [7]
  IC90: 0.4 µg/mL (≈ 0.682 µM)
[1]; [8]
  IC90: 0.08 µg/mL (≈ 0.136 µM)
Diplodia maydis (Dm); [9]
  IC90: 0.4 µg/mL (≈ 0.682 µM)
[2]; [10]
  IC90: 0.08 µg/mL (≈ 0.136 µM)
[3]; [11]
  IC90: 0.08 µg/mL (≈ 0.136 µM)
[4]; [12]
  IC90: 10 µg/mL (≈ 17 µM)
Rhizoctonia solani (Rs); [13]
  IC90: 0.1 µg/mL (≈ 0.17 µM)
Septoria tritici (St); [14]
  IC90: ≥ 2 µg/mL
[5]
  Barley Powdery Mildew Control at a compound concentration of 10 ppm or lower: A (from 70% to 84% control of barley powdery mildew)
Sphaerotheca fuliginea
  Cucumber Powdery Mildew Control at a compound concentration of 10 ppm or lower: AA (≥85% control of cucumber powdery mildew)
[6]
  Septoria Leaf Blotch Control at a compound concentration of 25 ppm or lower: A (from 70% to 84% control of wheat septoria leaf blotch)
Fusarium graminearum
  Wheat Fusarium Head Blight Control at a compound concentration of 25 ppm or lower: B (from 50 to 69% control of wheat fusarium head blight)
Puccinia triticina
  Wheat Leaf Rust Control at a compound concentration of 10 ppm or lower: A (from 70% to 84% control of wheat leaf rust)
Phakopsora pachyrhizi
  Asian Soybean Rust Control at a compound concentration of 25 ppm or lower: AA (≥85% control of Asian soybean rust)

## COc1ccc(F)cc1[C@H](Cn1c(=O)n([C@H](C)C(=O)NC(C)C)c(=O)c2c(C)c(-n3nccn3)sc21)OCCC#N [Compound I-198, (R)-2-(1-((R)-2-(2-cyanoethoxy)-2-(5-fluoro-2-methoxyphenyl)ethyl)-5-methyl-2,4-dioxo-6-(2H-1,2,3-triazol-2-yl)-1,4-dihydrothieno[2,3-d]pyrimidin-3 (2H)-yl)-N-isopropylpropanamide]
Botrtyis cinerea (Bc); [7]
  IC90: 0.4 µg/mL (≈ 0.685 µM)
[1]; [8]
  IC90: 0.08 µg/mL (≈ 0.137 µM)
Diplodia maydis (Dm); [9]
  IC90: 0.08 µg/mL (≈ 0.137 µM)
[2]; [10]
  IC90: 0.08 µg/mL (≈ 0.137 µM)
[3]; [11]
  IC90: 0.4 µg/mL (≈ 0.685 µM)
[4]; [12]
  IC90: 2 µg/mL (≈ 3.43 µM)
Rhizoctonia solani (Rs); [13]
  IC90: 0.08 µg/mL (≈ 0.137 µM)
Septoria tritici (St); [14]
  IC90: ≥ 2 µg/mL
[5]
  Barley Powdery Mildew Control at a compound concentration of 10 ppm or lower: AA (≥85% control of barley powdery mildew)
Sphaerotheca fuliginea
  Cucumber Powdery Mildew Control at a compound concentration of 10 ppm or lower: AA (≥85% control of cucumber powdery mildew)
[6]
  Septoria Leaf Blotch Control at a compound concentration of 25 ppm or lower: AA (≥85% control of wheat septoria leaf blotch)
Fusarium graminearum
  Wheat Fusarium Head Blight Control at a compound concentration of 25 ppm or lower: C (from 25 to 49% control of wheat fusarium head blight)
Puccinia triticina
  Wheat Leaf Rust Control at a compound concentration of 10 ppm or lower: AA (≥85% control of wheat leaf rust)
Phakopsora pachyrhizi
  Asian Soybean Rust Control at a compound concentration of 25 ppm or lower: AA (≥85% control of Asian soybean rust)

## COc1ccc(F)cc1[C@H](Cn1c(=O)n(C(C)(C)C(=O)NC(C)C)c(=O)c2c(C)c(-n3nccn3)sc21)OC[C@@H](C)C#N [Compound I-211, 2-(1-((R)-2-((S)-2-cyanopropoxy)-2-(5-fluoro-2-methoxyphenyl)ethyl)-5-methyl-2,4-dioxo-6-(2H-1,2,3-triazol-2-yl)-1,4-dihydrothieno[2,3-d]pyrimidin-3 (2H)-yl)-N-isopropyl-2-methylpropanamide]
Botrtyis cinerea (Bc); [7]
  IC90: 0.4 µg/mL (≈ 0.654 µM)
[1]; [8]
  IC90: 0.08 µg/mL (≈ 0.131 µM)
Diplodia maydis (Dm); [9]
  IC90: 0.08 µg/mL (≈ 0.131 µM)
[2]; [10]
  IC90: 0.08 µg/mL (≈ 0.131 µM)
[3]; [11]
  IC90: 0.4 µg/mL (≈ 0.654 µM)
[4]; [12]
  IC90: > 50 µg/mL
Rhizoctonia solani (Rs); [13]
  IC90: 0.08 µg/mL (≈ 0.131 µM)
Septoria tritici (St); [14]
  IC90: > 50 µg/mL
[5]
  Barley Powdery Mildew Control at a compound concentration of 10 ppm or lower: AA (≥85% control of barley powdery mildew)
Sphaerotheca fuliginea
  Cucumber Powdery Mildew Control at a compound concentration of 10 ppm or lower: AA (≥85% control of cucumber powdery mildew)
[6]
  Septoria Leaf Blotch Control at a compound concentration of 25 ppm or lower: AA (≥85% control of wheat septoria leaf blotch)
Fusarium graminearum
  Wheat Fusarium Head Blight Control at a compound concentration of 25 ppm or lower: C (from 25 to 49% control of wheat fusarium head blight)
Puccinia triticina
  Wheat Leaf Rust Control at a compound concentration of 10 ppm or lower: A (from 70% to 84% control of wheat leaf rust)
Phakopsora pachyrhizi
  Asian Soybean Rust Control at a compound concentration of 25 ppm or lower: AA (≥85% control of Asian soybean rust)

## CCNC(=O)[C@@H](C)n1c(=O)c2c(C)c(-n3nccn3)sc2n(C[C@H](OCCC#N)c2cc(F)ccc2OC)c1=O [Compound I-289, (R)-2-(1-((R)-2-(2-cyanoethoxy)-2-(5-fluoro-2-methoxyphenyl)ethyl)-5-methyl-2,4-dioxo-6-(2H-1,2,3-triazol-2-yl)-1,4-dihydrothieno[2,3-d]pyrimidin-3 (2H)-yl)-N-ethylpropanamide]
Botrtyis cinerea (Bc); [7]
  IC90: 2 µg/mL (≈ 3.51 µM)
[1]; [8]
  IC90: 0.08 µg/mL (≈ 0.14 µM)
Diplodia maydis (Dm); [9]
  IC90: 0.4 µg/mL (≈ 0.702 µM)
[2]; [10]
  IC90: 0.08 µg/mL (≈ 0.14 µM)
[3]; [11]
  IC90: 0.4 µg/mL (≈ 0.702 µM)
[4]; [12]
  IC90: ≥ 10 µg/mL
Rhizoctonia solani (Rs); [13]
  IC90: 0.08 µg/mL (≈ 0.14 µM)
Septoria tritici (St); [14]
  IC90: > 50 µg/mL
[5]
  Barley Powdery Mildew Control at a compound concentration of 10 ppm or lower: AA (≥85% control of barley powdery mildew)
Sphaerotheca fuliginea
  Cucumber Powdery Mildew Control at a compound concentration of 10 ppm or lower: AA (≥85% control of cucumber powdery mildew)
[6]
  Septoria Leaf Blotch Control at a compound concentration of 25 ppm or lower: AA (≥85% control of wheat septoria leaf blotch)
Fusarium graminearum
  Wheat Fusarium Head Blight Control at a compound concentration of 25 ppm or lower: C (from 25 to 49% control of wheat fusarium head blight)
Puccinia triticina
  Wheat Leaf Rust Control at a compound concentration of 10 ppm or lower: AA (≥85% control of wheat leaf rust)
Phakopsora pachyrhizi
  Asian Soybean Rust Control at a compound concentration of 25 ppm or lower: AA (≥85% control of Asian soybean rust)

## COc1ccc(F)cc1[C@H](Cn1c(=O)n([C@@H](C)C(=O)N(C)C(C)C)c(=O)c2c(C)c(-n3nccn3)sc21)OCCO [Compound I-089, (S)-2-(1-((R)-2-(5-fluoro-2-methoxyphenyl)-2-(2-hydroxyethoxy)ethyl)-5-methyl-2,4-dioxo-6-(2H-1,2,3-triazol-2-yl)-1,4-dihydrothieno[2,3-d]pyrimidin-3 (2H)-yl)-N-isopropyl-N-methylpropanamide]
Botrtyis cinerea (Bc); ≥90% inhibition, 48 hours vs 2% DMSO control, read-out: Compound Concentration (ppm) sufficient for ≥90% inhibition of growth, Bc
  IC90: > 0.4 µg/mL
[1]; ≥90% inhibition, 48 hours vs 2% DMSO control, read-out: Compound Concentration (ppm) sufficient for ≥90% inhibition of growth, Cg
  IC90: > 0.4 µg/mL
Diplodia maydis (Dm); ≥90% inhibition, 48 hours vs 2% DMSO control, read-out: Compound Concentration (ppm) sufficient for ≥90% inhibition of growth, Dm
  IC90: 2 µg/mL (≈ 3.4 µM)
[2]; ≥90% inhibition, 48 hours vs 2% DMSO control, read-out: Compound Concentration (ppm) sufficient for ≥90% inhibition of growth, Fm
  IC90: 0.08 µg/mL (≈ 0.136 µM)
[3]; ≥90% inhibition, 48 hours vs 2% DMSO control, read-out: Compound Concentration (ppm) sufficient for ≥90% inhibition of growth, Fv
  IC90: > 0.4 µg/mL
[4]; ≥90% inhibition, 48 hours vs 2% DMSO control, read-out: Compound Concentration (ppm) sufficient for ≥90% inhibition of growth, Pc
  IC90: ≥ 50 µg/mL
Rhizoctonia solani (Rs); ≥90% inhibition, 48 hours vs 2% DMSO control, read-out: Compound Concentration (ppm) sufficient for ≥90% inhibition of growth, Rs
  IC90: 0.08 µg/mL (≈ 0.136 µM)
Septoria tritici (St); ≥90% inhibition, 48 hours vs 2% DMSO control, read-out: Compound Concentration (ppm) sufficient for ≥90% inhibition of growth, St
  IC90: ≥ 10 µg/mL
[5]
  Barley Powdery Mildew Control at a compound concentration of 10 ppm or lower: B (from 50 to 69% control of barley powdery mildew)
Sphaerotheca fuliginea
  Cucumber Powdery Mildew Control at a compound concentration of 10 ppm or lower: AA (≥85% control of cucumber powdery mildew)
[6]
  Septoria Leaf Blotch Control at a compound concentration of 25 ppm or lower: C (from 25 to 49% control of wheat septoria leaf blotch)
Fusarium graminearum
  Wheat Fusarium Head Blight Control at a compound concentration of 25 ppm or lower: D (<25% control of wheat fusarium head blight)
Puccinia triticina
  Wheat Leaf Rust Control at a compound concentration of 10 ppm or lower: AA (≥85% control of wheat leaf rust)
Phakopsora pachyrhizi
  Asian Soybean Rust Control at a compound concentration of 25 ppm or lower: A (from 70% to 84% control of Asian soybean rust)

— US10941157B2, “Pesticidal compositions and uses thereof” (Gilead Apollo, LLC, priority 2015, dated 2021)
